The test system of data set [1] is chemotherapy-induced peripheral neuropathy. The conditions noted are these: cited from earlier work.
For data set [2] the following is noted: when the chemotherapy is stopped; cited from earlier work.
Data set [3] has as its system chemotherapy-induced peripheral neuropathy. To be noted: treatment of CIPN; guideline rating; cited from earlier work.
Data set [4] concerns paclitaxel (albumin bound) chemotherapy-induced peripheral neuropathy. Nature of the data set: Paclitaxel (albumin bound) chemotherapy-induced peripheral neuropathy in rats, butylphthalide intragastric administration (Example 2). The format is in vivo, SD (Sprague Dawley) rats. To be noted: duloxetine hydrochloride 15 mg/kg qd, compared with the model group. The method, then:
The model group was given vegetable oil at the same frequency and with the same administration method as NBP. The normal group was given normal saline at the same frequency and with the same administration method as ab-PTX, and was given vegetable oil at the same frequency and with the same administration method as NBP. […] (2) Thermal pain threshold: measurements were performed on days −1, 7, and 14. Method: IITC Life Science Electronic Von Frey Anesthesio meter was used and the intensity of the light source was adjusted to obtain a baseline of thermal pain threshold of about 3-6 s. […] The rats were placed in a plastic compartment on a glass plate, to make the planta centers of the rats be exposed to the light source. […] (3) Mechanical stimulus pain threshold: measurements were performed on days 0, 6, and 13. Method: the rats were placed in a plastic compartment on a wire mesh, left to stand still for 15 min, stimulated using a stimulation probe with a diameter of 0.4 mm of the IITC Life Science Electronic Von Frey Anesthesio meter at the planta centers of the rats by gradually increasing the force until reflexive withdrawal of the rats.

In another data set the test system is MM.1S xenograft tumor. The data set can be described thus: Influence of NBP on in vivo anti-tumor efficacy of Bortezomib, MM.1S xenograft (Example 8). Further details: species or system Nu/Nu mice. The method, then: After in vitro resuscitation and passage of MM.1S cells to a sufficient amount, the cells were counted by a microscope, and diluted with a serum-free medium to adjust the cell count to about 1×10^8 cells/mL. The cell suspension was kept in an ice-water bath. The MM.1S cell suspension was extracted by a sterile syringe and inoculated into the subcutaneous tissue of the forelimb axilla of the Nu/Nu mice. […] Monotherapy group of Palbociclib: intragastric administration at 70 mg/kg, qd (the administration was commenced on day 0); […] The solvent group was given the solvent at the same frequency and with the same administration method as Bortezomib and NBP. The administration period was 16 days, and the administration volume was 10 mL/kg. […] Animals were weighed at set time once per day after the commencement of administration. After animals were grouped, the long diameter and the short diameter of the tumor were measured twice every week. […] V=1⁄2×A×B^2 […] (4) Tumor growth inhibition rate: Note: V: tumor volume; A: tumor length; B: tumor width; RTV: relative tumor volume; TVnd: tumor volume on day n; TV0d: tumor volume on day 0; […]: mean relative tumor volume on day n; TVXn: mean tumor volume of the therapy group on day n; TVX0: mean tumor volume of the therapy group on day 0; TVMn: mean tumor volume of the solvent group on day n; and TVM0: mean tumor volume of the solvent group on day 0 At the end of the experiment, after the animals were euthanized by CO2 asphyxiation, the tumors were excised and weighed.

Setting [5] is: prevention of CIPN, guideline rating.
Setting [6] is: prevention of CIPN, patients receiving cisplatin/oxaliplatin-based chemotherapy.
[7] abbreviates: prevention of CIPN, patients receiving paclitaxel/carboplatin chemotherapy.
The mark [8] stands for this setting: prevention of CIPN, patients receiving oxaliplatin treatment.
[9] abbreviates: day 14, Bor 0.5 mg/kg, Pal 70 mg/kg, NBP 60 mg/kg, alone or combined.
[10] abbreviates: day 14, Bor 0.5 mg/kg, Pal 70 mg/kg, NBP 60 mg/kg, alone or combined, mean, n=6.

Counter-ions that a name gives are not always drawn. Like-named read-outs stand apart in the source and are kept apart here.

With `COCCOC(=O)C1=C(C)NC(C)=C(C(=O)OC(C)C)C1c1cccc([N+](=O)[O-])c1` (stereo not drawn) [Nimodipine], the Safety entry in data set [1] (setting [5]) is recorded as “Moderate”.

With `CCN(CC)C(=S)S` [Diethyldithio-carbamate], the Safety result in data set [1] (setting [5]) is recorded as “High”.

For `CC[C@]1(O)C[C@H]2CN(CCc3c([nH]c4ccccc34)[C@@](C(=O)OC)(c3cc4c(cc3OC)N(C=O)[C@H]3[C@@](O)(C(=O)OC)[C@H](OC(C)=O)[C@]5(CC)C=CCN6CC[C@]43[C@@H]65)C2)C1` [vincristine], the patients experiencing coasting in data set [2] is recorded as 30%.

For `COc1ccc(C(CN(C)C)C2(O)CCCCC2)cc1` (stereo not drawn) [Venlafaxine], in data set [1] (setting [5]), the Efficacy result is on record as “Low” and the Safety result was “Low”.

As for `NCCCNCCSP(=O)(O)O` [Amifostine], in data set [1] (setting [5]), the Efficacy entry is “Low” and the Safety entry is recorded as “Moderate”.

Consider `NCC1(CC(=O)O)CCCCC1` [Gabapentin], for which, in data set [3], the Efficacy result is “Low” and the Safety result is “Low”.

As to `CNCC[C@H](Oc1cccc2ccccc12)c1cccs1` [Duloxetine], in data set [3], the Efficacy result is listed as “Moderate” and the Safety result is “Low”.

As for `N[C@@H](CCC(=O)N[C@@H](CS)C(=O)NCC(=O)O)C(=O)O` [Glutathione], in data set [1] (setting [6]), the Efficacy result was “Low” and the Safety entry is “Low”. Besides, in data set [1] (setting [7]), the Efficacy entry was “Low” and the Safety result was “Low”.

For the compound `Nc1nnc(-c2cccc(Cl)c2Cl)c(N)n1` [Lamotrigine], in data set [3], the Efficacy result is recorded as “No evidence” and the Safety entry was “Low”.

Regarding `NC(=O)N1c2ccccc2C=Cc2ccccc21` [Carbamazepine], in data set [1] (setting [5]), the Efficacy result is “Low” and the Safety entry is “Low”.

On to Vitamin E, for which, in data set [1] (setting [5]), the Efficacy entry was “Low” and the Safety entry is “Low”.

As to `N[C@@H](CCC(=O)O)C(=O)O` [Glutamate], in data set [1] (setting [5]), the Efficacy result is reported as “Low” and the Safety result is recorded as “Low”.

`CNCC[C@H](Oc1cccc2ccccc12)c1cccs1` [duloxetine hydrochloride, Duloxetine hydrochloride]: in data set [4] (NBP 3, 10 and 30 mg/kg bid, intragastric, throughout administration), the “body weights of the rats” value was “significantly increase”. Besides, the mechanical pain threshold entry in data set [4] (day 13, NBP 10 and 30 mg/kg bid, P<0.05) was “significantly decreased”. The thermal pain threshold entry in data set [4] (day 14, NBP 3, 10 and 30 mg/kg bid, P<0.05) is listed as “significantly decreased”.

On to `CC1=C(/C=C/C(C)=C/C=C/C(C)=C/C(=O)O)C(C)(C)CCC1` [All-trans retinoic acid], for which, in data set [1] (setting [5]), the Efficacy result is recorded as “Low” and the Safety entry was “Moderate”.

As for “rhuLIF: intervention for prevention of CIPN listed in the ASCO guideline table”, in data set [1], the Safety result is listed as “Low”. In data set [1] (setting [5]), the Efficacy entry is “No evidence”.

Take `CC(=O)O[C@H](CC(=O)[O-])C[N+](C)(C)C` [Acetyl L-carnitine]: in data set [1] (setting [5]), the Efficacy entry is on record as “Low” and the Safety result was “Low”. Moreover, in data set [3], the Efficacy result was “Low” and the Safety entry was “Moderate”.

In the case of `CN(C)CCC=C1c2ccccc2CCc2ccccc21` [Amitriptyline], in data set [1] (setting [5]), the Efficacy result is “No evidence” and the Safety entry is “Moderate”.

With Omega-3-fatty acid, in data set [1] (setting [8]), the Efficacy result is on record as “Low” and the Safety result is “Low”.

For Amitriptyline/nortriptyline, in data set [3], the Efficacy result is listed as “Low”.

Consider `CC(=O)N[C@@H](CS)C(=O)O` [Acetylcysteine], for which, in data set [1] (setting [5]), the Efficacy entry is reported as “Low” and the Safety result is recorded as “Low”.

As to `CC(=O)c1c(C)c2cnc(Nc3ccc(N4CCNCC4)cn3)nc2n(C2CCCC2)c1=O` [Palbociclib], in the data set on MM.1S xenograft tumor (setting [9]), the T/C % is reported as 44.4% and the TGI % came to 56.3%. In the data set with MM.1S xenograft tumor (setting [10]), the RTV worked out at 4.3 and the TV was found to be 605.4 mm^3. In the data set on MM.1S xenograft tumor (end of experiment, Bor 0.5 mg/kg, Pal 70 mg/kg, NBP 60 mg/kg, alone or combined), the “Tumor weight inhibition rate” value is 66.6%. In addition, the Tumor weight in the data set on MM.1S xenograft tumor (end of experiment, Bor 0.5 mg/kg, Pal 70 mg/kg, NBP 60 mg/kg, alone or combined, mean, n=6, in g (unit assumed)) turned out to be 0.550. The “body weights of the mice” value in the data set on MM.1S xenograft tumor (mouse, in vivo) is recorded as “no significant difference”.

(Values after patent publication US20230144023A1, “USE OF BUTYLPHTHALIDE AND DERIVATIVE THEREOF” (CSPC NBP PHARMACEUTICAL CO., LTD, priority 2020, published 2023).)
